Laboratory results taken from patent publication US12497370B2, “Isoxazoline derivatives” (Elanco Tiergesundheit AG, priority 2019, dated 2025).

System: fleas (Ctenocephalides felis)
Assay: In vitro evaluation of ingestion activity against fleas
Conditions: flea ingestion test, compound in organic bovine blood (0.5% DMSO), adult fleas, percent mortality between 2 h and 48 h post infestation, read-out: EC50 (the source's name)
Description: In Vitro Evaluation of Ingestion Activity Against Fleas (Ctenocephalides felis)
For flea ingestion tests, serial dilutions of the compound stock were performed using DMSO to achieve the desired range for EC50 and EC90 determination. An aliquot of each compound dilution was added to organic bovine blood with a final DMSO concentration of 0.5% and placed in an artificial feeding container. Fipronil is included to serve as a positive control. Ten newly emerged unfed adult fleas, 0-7 days old Ctenocephalides felis, from a laboratory colony, were aspirated into each vial or cage. The cages for flea ingestion assays were held in a temperature-controlled artificial feeding apparatus to allow continual access to organic bovine blood containing the desired concentration of compound. Fresh aliquots of compound-spiked bovine blood were provided daily for the duration of the study. Fleas were evaluated for percent mortality at various time points between 2 h and 48 h post infestation. Fleas showing normal movement and/or jumping ability were considered viable and those showing no movement after tapping the vials were scored as dead.

How did the LC50 turn out when `Cc1cc(C2=NOC(c3cc(C(F)(F)F)cc(Cl)c3F)(C(F)(F)F)C2)ccc1C(=O)NCc1nc(C#N)cs1` (racemic) [Example 3.23, N-[(4-cyanothiazol-2-yl)methyl]-2-methyl-4-[(5RS)-5-[3-chloro-2-fluoro-5-(trifluoromethyl)phenyl]-5-(trifluoromethyl)-4H-isoxazol-3-yl]benzamide] was run?
The LC50 was less than 1 µg/mL.

Which LC50 does the source give for `Cc1cc(C2=NOC(c3cc(C(F)(F)F)cc(Cl)c3F)(C(F)(F)F)C2)ccc1C(=O)NC1CSC1` (single isomer, unassigned) [Example 3.51, 2-methyl-4-[(5R or S)-5-[3-chloro-2-fluoro-5-(trifluoromethyl)phenyl]-5-(trifluoromethyl)-4H-isoxazol-3-yl]-N-(thietan-3-yl)benzamide] here?
Its LC50 is less than 1 µg/mL.

For `Cc1cc(C2=NOC(c3cc(C(F)(F)F)cc(Cl)c3F)(C(F)(F)F)C2)ccc1C(=O)NCC(=O)NCC1CC1` (racemic) [Example 3.8, N-[2-(cyclopropylmethylamino)-2-oxo-ethyl]-2-methyl-4-[(5RS)-5-[3-chloro-2-fluoro-5-(trifluoromethyl)phenyl]-5-(trifluoromethyl)-4H-isoxazol-3-yl]benzamide], which LC50 is on record?
The LC50 was less than 1 µg/mL.

How did the LC50 turn out when `Cc1cc(C2=NOC(c3cc(C(F)(F)F)cc(Cl)c3F)(C(F)(F)F)C2)ccc1C(=O)NCC1(C#N)CC1` (single isomer, unassigned) [Example 3.77, N-[(1-cyanocyclopropyl)methyl]-2-methyl-4-[(5R or S)-5-[3-chloro-2-fluoro-5-(trifluoromethyl)phenyl]-5-(trifluoromethyl)-4H-isoxazol-3-yl]benzamide] was run?
Its LC50 is less than 1 µg/mL.

For `Cc1cc(C2=NOC(c3cc(C(F)(F)F)cc(Cl)c3F)(C(F)(F)F)C2)ccc1C(=O)N[C@H]1CNC(=O)C1` (single isomer, unassigned) [Example 3.85, 4-[(5R or S)-5-[3-chloro-2-fluoro-5-(trifluoromethyl)phenyl]-5-(trifluoromethyl)-4H-isoxazol-3-yl]-2-methyl-N-[(3R)-5-oxopyrrolidin-3-yl]benzamide], which LC50 is on record?
The LC50 was less than 1 µg/mL.

With `Cc1cc(C2=NOC(c3cc(C(F)(F)F)cc(Cl)c3F)(C(F)(F)F)C2)ccc1C(=O)N[C@@H]1CN(CC(F)(F)F)C1=O` (single isomer, unassigned) [Example 3.73, 4-[(5R or S)-5-[3-chloro-2-fluoro-5-(trifluoromethyl)phenyl]-5-(trifluoromethyl)-4H-isoxazol-3-yl]-2-methyl-N-[(3R)-2-oxo-1-(2,2,2-trifluoroethyl)azetidin-3-yl]benzamide] as the compound, how does the LC50 read?
Its LC50 is less than 1 µg/mL.

Which LC50 does the source give for `CCN1C[C@@H](NC(=O)c2ccc(C3=NOC(c4cc(C(F)(F)F)cc(Cl)c4F)(C(F)(F)F)C3)cc2C)CC1=O` (single isomer, unassigned) [Example 3.86, 4-[(5R or S)-5-[3-chloro-2-fluoro-5-(trifluoromethyl)phenyl]-5-(trifluoromethyl)-4H-isoxazol-3-yl]-N-[(3S)-1-ethyl-5-oxo-pyrrolidin-3-yl]-2-methyl-benzamide] here?
Its LC50 is less than 1 µg/mL.

With `Cc1cc(C2=NOC(c3cc(C(F)(F)F)cc(Cl)c3F)(C(F)(F)F)C2)ccc1C(=O)NC1CC2(COC2)C1` (single isomer, unassigned) [Example 3.62, 2-methyl-N-(2-oxaspiro[3.3]heptan-6-yl)-4-[(5R or S)-5-[3-chloro-2-fluoro-5-(trifluoromethyl)phenyl]-5-(trifluoromethyl)-4H-isoxazol-3-yl]benzamide] as the compound, how does the LC50 read?
Its LC50 is less than 1 µg/mL.

Which LC50 does the source give for `Cc1cc(C2=NOC(c3cc(C(F)(F)F)cc(Cl)c3F)(C(F)(F)F)C2)ccc1C(=O)NC1CC(F)C1` (single isomer, unassigned) [Example 3.50, N-(3-fluorocyclobutyl)-2-methyl-4-[(5R or S)-5-[3-chloro-2-fluoro-5-(trifluoromethyl)phenyl]-5-(trifluoromethyl)-4H-isoxazol-3-yl]benzamide] here?
The LC50 was less than 1 µg/mL.

How did the LC50 turn out when `Cc1cc(C2=NOC(c3cc(C(F)(F)F)cc(Cl)c3F)(C(F)(F)F)C2)ccc1C(=O)NN1CCNC1=O` (racemic) [Example 3.25, 2-methyl-N-(2-oxoimidazolidin-1-yl)-4-[(5RS)-5-[3-chloro-2-fluoro-5-(trifluoromethyl)phenyl]-5-(trifluoromethyl)-4H-isoxazol-3-yl]benzamide] was run?
The LC50 was less than 3 µg/mL.

How did the LC50 turn out when `Cc1cc(C2=NOC(c3cc(C(F)(F)F)cc(Cl)c3F)(C(F)(F)F)C2)ccc1C(=O)NC1CN(S(=O)(=O)C(F)(F)F)C1` (single isomer, unassigned) [Example 3.61, 2-methyl-4-[(5R or S)-5-[3-chloro-2-fluoro-5-(trifluoromethyl)phenyl]-5-(trifluoromethyl)-4H-isoxazol-3-yl]-N-[1-(trifluoromethylsulfonyl)azetidin-3-yl]benzamide] was run?
The LC50 was less than 3 µg/mL.

Which LC50 does the source give for `Cc1cc(C2=NOC(c3cc(C(F)(F)F)cc(Cl)c3F)(C(F)(F)F)C2)ccc1C(=O)N[C@@H]1CNC(=O)C1` (single isomer, unassigned) [Example 3.84, 4-[(5R or S)-5-[3-chloro-2-fluoro-5-(trifluoromethyl)phenyl]-5-(trifluoromethyl)-4H-isoxazol-3-yl]-2-methyl-N-[(3S)-5-oxopyrrolidin-3-yl]benzamide] here?
The LC50 was less than 1 µg/mL.

How did the LC50 turn out when `Cc1cc(C2=NOC(c3cc(C(F)(F)F)cc(Cl)c3F)(C(F)(F)F)C2)ccc1C(=O)N[C@@H]1CNC1=O` (single isomer, unassigned) [Example 3.53, 4-[(5R or S)-5-[3-chloro-2-fluoro-5-(trifluoromethyl)phenyl]-5-(trifluoromethyl)-4H-isoxazol-3-yl]-2-methyl-N-[(3R)-2-oxoazetidin-3-yl]benzamide] was run?
Its LC50 is less than 1 µg/mL.

With `Cc1cc(C2=NO[C@@](c3cc(C(F)(F)F)cc(Cl)c3F)(C(F)(F)F)C2)ccc1C(=O)N[C@@H]1CC[C@H](C#N)C1` (single isomer, unassigned) [Example 3.90, 4-[(5S or R)-5-[3-chloro-2-fluoro-5-(trifluoromethyl)phenyl]-5-(trifluoromethyl)-4H-isoxazol-3-yl]-N-[cis-3-cyanocyclopentyl]-2-methyl-benzamide] as the compound, how does the LC50 read?
The LC50 was less than 1 µg/mL.

Which LC50 does the source give for `Cc1cc(C2=NOC(c3cc(C(F)(F)F)cc(Cl)c3F)(C(F)(F)F)C2)ccc1C(=O)NN1CCN(CC(F)(F)F)C1=O` (racemic) [Example 3.26, 2-methyl-N-[2-oxo-3-(2,2,2-trifluoroethyl)imidazolidin-1-yl]-4-[(5RS)-5-[3-chloro-2-fluoro-5-(trifluoromethyl)phenyl]-5-(trifluoromethyl)-4H-isoxazol-3-yl]benzamide] here?
Its LC50 is less than 3 µg/mL.

Which LC50 does the source give for `Cc1cc(C2=NO[C@](c3cc(C(F)(F)F)cc(Cl)c3F)(C(F)(F)F)C2)ccc1C(=O)N[C@H]1C[C@H](C(F)(F)F)C1` (single isomer, unassigned) [Example 3.65, 2-methyl-4-[(5R or S)-5-[3-chloro-2-fluoro-5-(trifluoromethyl)phenyl]-5-(trifluoromethyl)-4H-isoxazol-3-yl]-N-[trans-3-(trifluoromethyl)cyclobutyl] benzamide] here?
The LC50 was less than 1 µg/mL.

`Cc1cc(C2=NOC(c3cc(C(F)(F)F)cc(Cl)c3F)(C(F)(F)F)C2)ccc1C(=O)N[C@H]1CC[C@H](C#N)CC1` (single isomer, unassigned) [Example 3.92, N-(trans-4-cyanocyclohexyl)-2-methyl-4-[(5R or S)-5-[3-chloro-2-fluoro-5-(trifluoromethyl)phenyl]-5-(trifluoromethyl)-4H-isoxazol-3-yl]benzamide] was tested. Which LC50 did it give?
The LC50 was less than 3 µg/mL.

With `Cc1cc(C2=NOC(c3cc(C(F)(F)F)cc(Cl)c3F)(C(F)(F)F)C2)ccc1C(=O)Nc1cccc(C#N)c1` (single isomer, unassigned) [Example 3.81, N-(3-cyanophenyl)-2-methyl-4-[(5S or R)-5-[3-chloro-2-fluoro-5-(trifluoromethyl)phenyl]-5-(trifluoromethyl)-4H-isoxazol-3-yl]benzamide] as the compound, how does the LC50 read?
Its LC50 is less than 3 µg/mL.

How did the LC50 turn out when `CO[C@H]1C[C@@H](NC(=O)c2ccc(C3=NOC(c4cc(C(F)(F)F)cc(Cl)c4F)(C(F)(F)F)C3)cc2C)C1` (mixture of isomers) [Example 3.47, 4-[(5RS)-5-[3-chloro-2-fluoro-5-(trifluoromethyl)phenyl]-5-(trifluoromethyl)-4H-isoxazol-3-yl]-N-(cis-3-methoxycyclobutyl)-2-methyl-benzamide] was run?
Its LC50 is less than 3 µg/mL.

`Cc1cc(C2=NOC(c3cc(C(F)(F)F)cc(Cl)c3F)(C(F)(F)F)C2)ccc1C(=O)N[C@@H]1CCN(CC(F)(F)F)C1` (single isomer, unassigned) [Example 3.80, 4-[(5S or R)-5-[3-chloro-2-fluoro-5-(trifluoromethyl)phenyl]-5-(trifluoromethyl)-4H-isoxazol-3-yl]-2-methyl-N-[(3R)-1-(2,2,2-trifluoroethyl)pyrrolidin-3-yl]benzamide] was tested. Which LC50 did it give?
The LC50 was less than 1 µg/mL.

With `Cc1cc(C2=NOC(c3cc(C(F)(F)F)cc(Cl)c3F)(C(F)(F)F)C2)ccc1C(=O)Nc1cnn(CC#N)c1` (single isomer, unassigned) [Example 3.75, N-[1-(cyanomethyl)pyrazol-4-yl]-2-methyl-4-[(5S or R)-5-[3-chloro-2-fluoro-5-(trifluoromethyl)phenyl]-5-(trifluoromethyl)-4H-isoxazol-3-yl]benzamide] as the compound, how does the LC50 read?
Its LC50 is less than 3 µg/mL.

For `Cc1cc(C2=NOC(c3cc(C(F)(F)F)cc(Cl)c3F)(C(F)(F)F)C2)ccc1C(=O)NC1CCN(C2CC2)C1=O` (racemic) [Example 3.15, 2-methyl-4-[(5RS)-5-[3-chloro-2-fluoro-5-(trifluoromethyl)phenyl]-5-(trifluoromethyl)-4H-isoxazol-3-yl]-N-[(3RS)-1-cyclopropyl-2-oxo-pyrrolidin-3-yl]benzamide], which LC50 is on record?
The LC50 was less than 3 µg/mL.
